Series [1] addresses T1, PSMA (PSMA+ PC3-Pip cells) (Homo sapiens, UniProt Q04609).
T1 construct: host or cells: PC3-Pip (PSMA+ subline of PC-3)
In words: 68Ga-PSMA-11 competition radioligand binding assay.
Protocol: Competition Radioligand Binding Assay: The nanoparticles were utilized in a ^68Ga-PSMA-11 competition radioligand binding assay to obtain the IC50 values, similar to our prior method. […] PC3-Pip cells were seeded in 96-well plates (˜20 k cells/wells) ˜24 h prior testing in RPMI1640 medium containing with 10% FBS and 1% penicillin/streptomycin. The growth medium was discarded, and the cells were washed with PBS two times. […] The treated cells were incubated for 1 h at room temperature. Then, the radioactive medium was discarded, and the cells were washed twice with PBS. The cells in each well were then treated with NaOH (5N, 250 μL) and incubated for 30 min at 37° C. for lysis. The lysate from each well was collected in vials and analyzed in a Hidex gamma counter to quantify the bound activity. IC50 was calculated by nonlinear regression analysis in Graph-Pad Prism software.
Competition Radioligand Binding Assay: Similar to our prior reported protocol, ^68Ga-PSMA-11 was produced in a ^68Ge/^68Ga generator, and used in a competition radioligand binding assay to acquire the IC50 values for the nanocarriers. […] After 1 h incubated at room temperature, the radioactive medium was removed, and the cells were washed with PBS twice. The cells were lyzed with sodium hydroxide and the radioactivity of the lysate in each well was counted in a Hidex gamma counter. IC50 was determined by nonlinear regression analysis in Prism software (Graph-Pad).

The next series deals with PSMA (Homo sapiens, UniProt Q04609). To be noted: previously reported; cited from earlier work.
The test system of series [2] is PC3-Pip metastatic tumors. In words: Ex vivo organ biodistribution of [68Ga]PSMA-11 in PC3-Pip metastatic models after treatment. Conditions: Control mice (no 177Lu nanocarrier), individual mice.
For series [3], the system named is PSMA+ PC3-Pip subcutaneous tumors. The series can be described thus: Treatment study in PSMA+ PC3-Pip subcutaneous models. It is filed as in vivo, mice. Conditions: 250 μCi single dose. As to the method:
The tumor measurements were carried out twice a week, and tumor volumes were calculated by formula V=[length×(width)^2]/2.

The test system is the same in series [4]. To be noted: prior literature; cited from earlier work.
Series [5] relates to prostate specific antigen. Conditions: patients receiving as low as 14 Gy tumor-absorbed dose; cited from earlier work.

pIC50, pKi: −log10 of the molar value. Several values for one entry are separate records, joined by “and”; a condition that tells them apart may be missing. Equal values may be shown once. Read-outs that look alike come from different tables or passages of the source.

T1 sequence (Q04609 whole entry): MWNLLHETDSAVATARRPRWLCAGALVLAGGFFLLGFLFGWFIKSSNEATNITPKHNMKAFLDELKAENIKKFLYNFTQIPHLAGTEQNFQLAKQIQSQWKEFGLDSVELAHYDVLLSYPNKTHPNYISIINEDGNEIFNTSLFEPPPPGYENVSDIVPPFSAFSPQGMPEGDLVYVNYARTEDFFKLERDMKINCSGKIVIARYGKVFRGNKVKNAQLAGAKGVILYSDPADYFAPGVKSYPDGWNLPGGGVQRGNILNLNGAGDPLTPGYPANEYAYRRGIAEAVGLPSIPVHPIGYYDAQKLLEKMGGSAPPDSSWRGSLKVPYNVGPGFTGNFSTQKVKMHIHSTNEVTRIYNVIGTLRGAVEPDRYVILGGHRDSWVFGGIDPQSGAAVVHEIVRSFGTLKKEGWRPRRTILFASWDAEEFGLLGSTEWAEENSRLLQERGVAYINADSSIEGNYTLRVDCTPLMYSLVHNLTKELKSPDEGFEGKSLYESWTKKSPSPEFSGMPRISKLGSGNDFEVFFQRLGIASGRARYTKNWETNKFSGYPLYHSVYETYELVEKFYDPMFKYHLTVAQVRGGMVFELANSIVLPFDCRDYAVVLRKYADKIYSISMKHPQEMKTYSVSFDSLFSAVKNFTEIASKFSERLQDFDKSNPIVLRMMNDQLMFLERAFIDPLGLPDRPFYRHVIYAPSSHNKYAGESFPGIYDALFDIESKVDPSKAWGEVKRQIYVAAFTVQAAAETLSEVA
PSMA, sequence (Q04609 whole entry, species assumed): as the sequence (Q04609 whole entry) above

With `[N-]=[N+]=NCCCCCCOC(=O)NCCCC[C@H](NC(=O)N[C@@H](CCC(=O)O)C(=O)O)C(=O)O` [Azido-ACUPA], the pIC50 – broadly, the IC50 on a negative log10 scale, so that one unit is a factor of ten – was 6.46 in series [1] (Table 2 Experiment 1, unlabeled) and 6.48 in series [1] (Table 10 Experiment 2, unlabeled).

In turn, `O=C(O)CC[C@H](NC(=O)N[C@@H](CCCCNC(=O)Nc1ccc(I)cc1)C(=O)O)C(=O)O` [PSMA-2] showed a negative logarithm of the IC50 (pIC50) in series [1] (Table 10 Experiment 1, unlabeled) of 7.59. For the same molecule, at PSMA, the negative logarithm of the Ki (pKi) (as a rule, the negative decadic logarithm of the Ki, by convention in mol/L) is 9.62.

Take `O=C([O-])CN(CCN(CC(=O)[O-])Cc1cc(CCC(=O)NCCCCCC(=O)NCCCC[C@H](NC(=O)N[C@@H](CCC(=O)O)C(=O)O)C(=O)O)ccc1[O-])Cc1cc(CCC(=O)O)ccc1[O-].[68Ga+3].[OH3+]` [[^68Ga]PSMA-11]: in series [2] (day 35), the “[^68Ga]PSMA-11 ex vivo organ biodistribution, Blood” value is 0.114 % ID/g and 0.2999 % ID/g and 0.08 % ID/g and 0.1 % ID/g and 0.06 % ID/Organ and 0.2029 % ID/Organ and 0.05813 % ID/Organ and 0.05324 % ID/Organ; the “[^68Ga]PSMA-11 ex vivo organ biodistribution, Bone” value is 0.335 % ID/g and 0.215 % ID/g and 0.2269 % ID/g and 0.3033 % ID/g and 0.08 % ID/Organ and 0.05419 % ID/Organ and 0.04439 % ID/Organ and 0.06845 % ID/Organ; the “[^68Ga]PSMA-11 ex vivo organ biodistribution, Brain” value was 0.046 % ID/g and 0.01371 % ID/g and 0.02404 % ID/g and 0.03404 % ID/g and 0.02 % ID/Organ and 0.004254 % ID/Organ and 0.009255 % ID/Organ and 0.01265 % ID/Organ; the “[^68Ga]PSMA-11 ex vivo organ biodistribution, Heart” value is 1.938 % ID/g and 1.093 % ID/g and 0.8842 % ID/g and 0.9371 % ID/g and 0.29 % ID/Organ and 0.1577 % ID/Organ and 0.1548 % ID/Organ and 0.1476 % ID/Organ. In series [2] (day 35), the “[^68Ga]PSMA-11 ex vivo organ biodistribution, Large Int” value was 0.663 % ID/g and 0.3338 % ID/g and 0.1292 % ID/g and 0.592 % ID/g and 0.09 % ID/Organ and 0.08014 % ID/Organ and 0.03072 % ID/Organ and 0.1919 % ID/Organ; the “[^68Ga]PSMA-11 ex vivo organ biodistribution, Liver” value is 0.855 % ID/g and 0.4054 % ID/g and 0.232 % ID/g and 0.289 % ID/g and 0.62 % ID/Organ and 0.2982 % ID/Organ and 0.1099 % ID/Organ and 0.2246 % ID/Organ; the “[^68Ga]PSMA-11 ex vivo organ biodistribution, Lung” value is 8.218 % ID/g and 1.814 % ID/g and 1.285 % ID/g and 1.336 % ID/g and 3.12 % ID/Organ and 0.2767 % ID/Organ and 0.1869 % ID/Organ and 0.2393 % ID/Organ; the “[^68Ga]PSMA-11 ex vivo organ biodistribution, Muscle” value was 0.414 % ID/g and 0.2044 % ID/g and 0.2192 % ID/g and 0.1624 % ID/g and 0.2 % ID/Organ and 0.05644 % ID/Organ and 0.04564 % ID/Organ and 0.04172 % ID/Organ. In series [2] (day 35), the “[^68Ga]PSMA-11 ex vivo organ biodistribution, Pancreas” value was 0.464 % ID/g and 0.2066 % ID/g and 0.2297 % ID/g and 0.5007 % ID/g and 0.04 % ID/Organ and 0.02448 % ID/Organ and 0.03206 % ID/Organ and 0.07795 % ID/Organ; the “[^68Ga]PSMA-11 ex vivo organ biodistribution, Skin” value was 3.25 % ID/g and 0.586 % ID/g and 0.9817 % ID/g and 0.4433 % ID/g and 1.08 % ID/Organ and 0.2667 % ID/Organ and 0.196 % ID/Organ and 0.2187 % ID/Organ; the “[^68Ga]PSMA-11 ex vivo organ biodistribution, Small Int” value was 0.29 % ID/g and 0.1397 % ID/g and 0.1663 % ID/g and 0.1479 % ID/g and 0.03 % ID/Organ and 0.02347 % ID/Organ and 0.03142 % ID/Organ and 0.02756 % ID/Organ; the “[^68Ga]PSMA-11 ex vivo organ biodistribution, Splcon” value is 22.586 % ID/g and 8.851 % ID/g and 8.108 % ID/g and 16.38 % ID/g. In addition, in series [2] (day 35), the “[^68Ga]PSMA-11 ex vivo organ biodistribution, Spleen” value was 1.34 % ID/Organ and 1.068 % ID/Organ and 0.7168 % ID/Organ and 1.253 % ID/Organ; the “[^68Ga]PSMA-11 ex vivo organ biodistribution, Stomach” value was 0.171 % ID/g and 0.3271 % ID/g and 0.1157 % ID/g and 0.09441 % ID/g and 0.16 % ID/Organ and 0.1002 % ID/Organ and 0.07062 % ID/Organ and 0.08055 % ID/Organ. Moreover, in series [2] (day 50), the “[^68Ga]PSMA-11 ex vivo organ biodistribution, Blood” value is 0.212 % ID/g and 0.29 % ID/g and 0.207 % ID/g and 0.07 % ID/g and 0.13 % ID/Organ and 0.26 % ID/Organ and 0.14 % ID/Organ; the “[^68Ga]PSMA-11 ex vivo organ biodistribution, Bone” value was 0.398 % ID/g and 1.082 % ID/g and 0.335 % ID/g and 0.768 % ID/g and 0.06 % ID/Organ and 0.07 % ID/Organ and 0.05 % ID/Organ; the “[^68Ga]PSMA-11 ex vivo organ biodistribution, Brain” value is 0.037 % ID/g and 0.073 % ID/g and 0.024 % ID/g and 0.025 % ID/g and 0.01 % ID/Organ and 0.02 % ID/Organ; the “[^68Ga]PSMA-11 ex vivo organ biodistribution, Heart” value is 1.037 % ID/g and 1.182 % ID/g and 0.615 % ID/g and 0.906 % ID/g and 0.16 % ID/Organ and 0.09 % ID/Organ and 0.14 % ID/Organ and 0.18 % ID/Organ. Besides, in series [2] (day 50), the “[^68Ga]PSMA-11 ex vivo organ biodistribution, Large Int” value is 0.766 % ID/g and 0.402 % ID/g and 1.093 % ID/g and 1.205 % ID/g and 0.12 % ID/Organ and 0.06 % ID/Organ and 0.24 % ID/Organ and 0.25 % ID/Organ; the “[^68Ga]PSMA-11 ex vivo organ biodistribution, Liver” value is 2.351 % ID/g and 1.41 % ID/g and 0.215 % ID/g and 0.336 % ID/g and 3.36 % ID/Organ and 0.35 % ID/Organ and 0.3 % ID/Organ and 0.41 % ID/Organ; the “[^68Ga]PSMA-11 ex vivo organ biodistribution, Lungs” value was 4.185 % ID/g and 14.472 % ID/g and 1.403 % ID/g and 2.187 % ID/g and 0.55 % ID/Organ and 1.74 % ID/Organ and 0.19 % ID/Organ and 0.34 % ID/Organ; the “[^68Ga]PSMA-11 ex vivo organ biodistribution, Muscle” value is 0.335 % ID/g and 0.498 % ID/g and 0.405 % ID/g and 0.533 % ID/g and 0.04 % ID/Organ and 0.06 % ID/Organ and 0.11 % ID/Organ and 0.09 % ID/Organ. Moreover, in series [2] (day 50), the “[^68Ga]PSMA-11 ex vivo organ biodistribution, Pancreas” value was 0.568 % ID/g and 0.668 % ID/g and 0.447 % ID/g and 0.649 % ID/g and 0.05 % ID/Organ and 0.07 % ID/Organ and 0.06 % ID/Organ; the “[^68Ga]PSMA-11 ex vivo organ biodistribution, Skin” value is 1.068 % ID/g and 2.397 % ID/g and 0.883 % ID/g and 0.807 % ID/g and 0.62 % ID/Organ and 0.6 % ID/Organ and 0.31 % ID/Organ and 0.33 % ID/Organ; the “[^68Ga]PSMA-11 ex vivo organ biodistribution, Small Int” value was 0.365 % ID/g and 0.631 % ID/g and 0.23 % ID/g and 0.289 % ID/g and 0.05 % ID/Organ and 0.09 % ID/Organ and 0.06 % ID/Organ and 0.07 % ID/Organ; the “[^68Ga]PSMA-11 ex vivo organ biodistribution, Spleen” value is 10.073 % ID/g and 86.889 % ID/g and 5.37 % ID/g and 8.812 % ID/g and 0.58 % ID/Organ and 1.25 % ID/Organ and 0.94 % ID/Organ and 1.1 % ID/Organ. Further, in series [2] (day 50), the “[^68Ga]PSMA-11 ex vivo organ biodistribution, Stomach” value was 0.605 % ID/g and 0.424 % ID/g and 0.154 % ID/g and 0.107 % ID/g and 0.34 % ID/Organ and 0.17 % ID/Organ and 0.12 % ID/Organ and 0.11 % ID/Organ.

In the case of `O=C([O-])CN1CCN(CC(=O)[O-])CCN(CC(=O)NCC2CCC(C(=O)N[C@@H](Cc3ccc4ccccc4c3)C(=O)NCCCC[C@H](NC(=O)N[C@@H](CCC(=O)O)C(=O)O)C(=O)O)CC2)CCN(CC(=O)[O-])CC1.[177Lu+3]` (stereo partly shown) [[^177Lu]PSMA-617], the values for the median survival in series [3] and in series [4] were 46 days and 51 days, respectively. The “reduction of prostate specific antigen” value in series [5] is “more than 50%”.

The values above are taken from patent US20260061082A1, “PROSTATE-SPECIFIC MEMBRANE ANTIGEN TARGETED DEEP-TUMOR PENETRATION OF POLYMER NANODRUGS AND METHODS OF USE THEREOF” (priority 2022, published 2026).
